Reference: the kinase profiling compilation of Christmann-Franck et al. (2016)

Experiments:
Experiment in all cases: KINOMEscan competition binding
Settings in all cases: compound 10.0 µM
[1] = test system: ABL1 (human), P00519 [M351T]
ACVR2B (human) = ACVR2B (human) (UniProt Q13705)
CAMKK2 (human) = CAMKK2 (human) (UniProt Q96RR4)
CDK11B (human) = CDK11B (human) (UniProt P21127)
CDKL2 (human) = CDKL2 (human) (UniProt Q92772)
CHEK1 (human) = CHEK1 (human) (UniProt O14757)
CaMK1 (human) = CaMK1 (human) (UniProt Q14012)
DAPK1 (human) = DAPK1 (human) (UniProt P53355)
DAPK3 (human) = DAPK3 (human) (UniProt O43293)
DDR2 (human) = DDR2 (human) (UniProt Q16832)
EPHA2 (human) = EPHA2 (human) (UniProt P29317)
EPHB3 (human) = EPHB3 (human) (UniProt P54753)
FER (human) = FER (human) (UniProt P16591)
FGR (human) = FGR (human) (UniProt P09769)
GAK (human) = GAK (human) (UniProt O14976)
GSK3A (human) = GSK3A (human) (UniProt P49840)
IGF1R (human) = IGF1R (human) (UniProt P08069)
[2] = test system: KIT (human), P10721 [D816V]
LIMK2 (human) = LIMK2 (human) (UniProt P53671)
MAP2K1 (human) = MAP2K1 (human) (UniProt Q02750)
MAP3K5 (human) = MAP3K5 (human) (UniProt Q99683)
MAPK1 (human) = MAPK1 (human) (UniProt P28482)
MAPK4 (human) = MAPK4 (human) (UniProt P31152)
MYO3A (human) = MYO3A (human) (UniProt Q8NEV4)
NEK5 (human) = NEK5 (human) (UniProt Q6P3R8)
NEK6 (human) = NEK6 (human) (UniProt Q9HC98)
NEK7 (human) = NEK7 (human) (UniProt Q8TDX7)
NUAK2 (human) = NUAK2 (human) (UniProt Q9H093)
PAK3 (human) = PAK3 (human) (UniProt O75914)
PIK3C2B (human) = PIK3C2B (human) (UniProt O00750)
PIP5K1A (human) = PIP5K1A (human) (UniProt Q99755)
PRKCH (human) = PRKCH (human) (UniProt P24723)
PRKG1 (human) = PRKG1 (human) (UniProt Q13976)
PRKX (human) = PRKX (human) (UniProt P51817)
ROS1 (human) = ROS1 (human) (UniProt P08922)
RPS6KA4 KD1 (human) = RPS6KA4 KD1 (human) (UniProt O75676)
RPS6KA5 KD1 (human) = RPS6KA5 KD1 (human) (UniProt O75582)
SIK2 (human) = SIK2 (human) (UniProt Q9H0K1)
ALK (human) = ALK (human) (UniProt Q9UM73)

Sequence of NUAK2 (human) (Q9H093 whole entry, looked up): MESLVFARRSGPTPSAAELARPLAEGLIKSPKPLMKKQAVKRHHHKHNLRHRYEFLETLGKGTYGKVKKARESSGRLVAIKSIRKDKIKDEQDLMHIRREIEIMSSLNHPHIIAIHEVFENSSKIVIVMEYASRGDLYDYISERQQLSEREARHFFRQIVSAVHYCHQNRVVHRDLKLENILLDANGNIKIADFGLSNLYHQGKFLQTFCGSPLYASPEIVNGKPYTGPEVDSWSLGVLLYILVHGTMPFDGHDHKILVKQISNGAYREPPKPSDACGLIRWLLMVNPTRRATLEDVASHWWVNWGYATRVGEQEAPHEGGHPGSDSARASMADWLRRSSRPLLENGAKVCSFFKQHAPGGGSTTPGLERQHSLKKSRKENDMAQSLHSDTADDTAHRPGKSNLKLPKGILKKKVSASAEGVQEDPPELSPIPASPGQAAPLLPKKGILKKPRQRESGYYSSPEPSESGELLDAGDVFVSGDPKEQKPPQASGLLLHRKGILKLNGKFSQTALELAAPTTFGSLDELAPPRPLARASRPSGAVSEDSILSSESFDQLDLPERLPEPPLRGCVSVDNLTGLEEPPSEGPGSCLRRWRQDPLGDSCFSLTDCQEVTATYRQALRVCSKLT
Sequence of MYO3A (human) (Q8NEV4 whole entry, looked up): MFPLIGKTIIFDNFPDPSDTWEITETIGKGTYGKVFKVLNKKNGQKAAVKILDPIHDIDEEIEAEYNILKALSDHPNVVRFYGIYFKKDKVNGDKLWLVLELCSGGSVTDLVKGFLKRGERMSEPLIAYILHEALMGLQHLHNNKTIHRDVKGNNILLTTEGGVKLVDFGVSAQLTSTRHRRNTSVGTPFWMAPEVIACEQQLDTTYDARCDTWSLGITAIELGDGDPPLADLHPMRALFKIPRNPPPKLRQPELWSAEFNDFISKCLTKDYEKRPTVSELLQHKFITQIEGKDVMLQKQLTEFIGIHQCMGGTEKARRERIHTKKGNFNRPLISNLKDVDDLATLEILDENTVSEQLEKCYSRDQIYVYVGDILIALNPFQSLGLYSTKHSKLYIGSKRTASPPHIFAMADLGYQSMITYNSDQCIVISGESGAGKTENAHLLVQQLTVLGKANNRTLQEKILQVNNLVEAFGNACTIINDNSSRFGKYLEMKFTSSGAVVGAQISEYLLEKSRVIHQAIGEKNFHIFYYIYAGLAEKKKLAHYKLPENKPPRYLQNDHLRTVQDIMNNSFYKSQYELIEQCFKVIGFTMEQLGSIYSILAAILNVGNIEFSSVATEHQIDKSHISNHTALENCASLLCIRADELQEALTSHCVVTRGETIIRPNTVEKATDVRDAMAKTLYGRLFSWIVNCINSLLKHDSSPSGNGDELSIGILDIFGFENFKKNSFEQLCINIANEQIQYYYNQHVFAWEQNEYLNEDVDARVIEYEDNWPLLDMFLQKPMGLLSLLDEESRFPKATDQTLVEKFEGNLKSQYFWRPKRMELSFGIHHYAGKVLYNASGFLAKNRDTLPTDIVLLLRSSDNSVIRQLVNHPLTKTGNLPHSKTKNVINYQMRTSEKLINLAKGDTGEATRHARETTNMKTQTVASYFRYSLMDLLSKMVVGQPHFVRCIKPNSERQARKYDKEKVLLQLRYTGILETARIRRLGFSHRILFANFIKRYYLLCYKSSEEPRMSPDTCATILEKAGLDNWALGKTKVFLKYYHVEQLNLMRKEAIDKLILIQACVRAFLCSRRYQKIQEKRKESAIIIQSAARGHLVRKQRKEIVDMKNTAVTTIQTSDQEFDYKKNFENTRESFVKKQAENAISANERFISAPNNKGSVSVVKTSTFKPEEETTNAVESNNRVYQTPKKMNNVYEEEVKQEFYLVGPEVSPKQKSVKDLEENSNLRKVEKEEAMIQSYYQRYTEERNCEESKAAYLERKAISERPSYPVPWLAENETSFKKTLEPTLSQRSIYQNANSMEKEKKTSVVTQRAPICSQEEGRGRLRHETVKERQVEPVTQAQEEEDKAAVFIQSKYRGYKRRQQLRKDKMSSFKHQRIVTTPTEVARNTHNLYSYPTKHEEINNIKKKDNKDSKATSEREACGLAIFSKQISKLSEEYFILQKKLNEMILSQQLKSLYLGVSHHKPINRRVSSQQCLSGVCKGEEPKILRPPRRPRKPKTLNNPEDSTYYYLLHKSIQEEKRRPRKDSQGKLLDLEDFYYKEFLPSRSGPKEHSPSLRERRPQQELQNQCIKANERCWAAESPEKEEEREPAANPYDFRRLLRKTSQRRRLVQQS
Sequence of RPS6KA5 KD1 (human) (O75582 whole entry, looked up): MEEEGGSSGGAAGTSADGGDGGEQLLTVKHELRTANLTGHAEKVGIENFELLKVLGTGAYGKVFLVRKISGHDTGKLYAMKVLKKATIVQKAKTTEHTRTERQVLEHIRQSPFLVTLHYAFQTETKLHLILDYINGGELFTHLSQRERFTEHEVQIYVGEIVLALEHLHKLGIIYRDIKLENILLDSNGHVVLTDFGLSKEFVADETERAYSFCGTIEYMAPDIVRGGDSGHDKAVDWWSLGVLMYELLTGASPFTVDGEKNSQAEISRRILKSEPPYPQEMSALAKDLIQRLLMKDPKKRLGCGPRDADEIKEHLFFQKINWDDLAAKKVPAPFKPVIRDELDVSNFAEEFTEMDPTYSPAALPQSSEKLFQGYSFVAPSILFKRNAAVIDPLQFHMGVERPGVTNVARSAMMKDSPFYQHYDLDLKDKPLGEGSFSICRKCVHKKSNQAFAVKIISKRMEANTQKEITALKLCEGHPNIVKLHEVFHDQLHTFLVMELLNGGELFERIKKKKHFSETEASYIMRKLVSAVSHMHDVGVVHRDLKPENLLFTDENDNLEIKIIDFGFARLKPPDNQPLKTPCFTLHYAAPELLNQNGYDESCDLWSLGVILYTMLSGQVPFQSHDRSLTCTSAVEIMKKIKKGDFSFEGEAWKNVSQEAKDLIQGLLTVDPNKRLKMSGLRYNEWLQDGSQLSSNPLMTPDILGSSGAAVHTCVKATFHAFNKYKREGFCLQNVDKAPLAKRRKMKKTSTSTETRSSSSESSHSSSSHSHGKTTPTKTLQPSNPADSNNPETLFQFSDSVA
Sequence of NEK6 (human) (Q9HC98 whole entry, looked up): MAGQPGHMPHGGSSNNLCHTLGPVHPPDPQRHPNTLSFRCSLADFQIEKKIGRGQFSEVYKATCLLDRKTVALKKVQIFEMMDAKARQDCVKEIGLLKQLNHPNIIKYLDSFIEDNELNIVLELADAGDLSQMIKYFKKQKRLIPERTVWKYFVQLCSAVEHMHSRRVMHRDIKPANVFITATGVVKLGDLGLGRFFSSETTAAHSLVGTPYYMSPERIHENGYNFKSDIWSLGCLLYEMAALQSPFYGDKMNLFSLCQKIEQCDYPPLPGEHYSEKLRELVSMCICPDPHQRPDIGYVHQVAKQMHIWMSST
Sequence of MAPK4 (human) (P31152 whole entry, looked up): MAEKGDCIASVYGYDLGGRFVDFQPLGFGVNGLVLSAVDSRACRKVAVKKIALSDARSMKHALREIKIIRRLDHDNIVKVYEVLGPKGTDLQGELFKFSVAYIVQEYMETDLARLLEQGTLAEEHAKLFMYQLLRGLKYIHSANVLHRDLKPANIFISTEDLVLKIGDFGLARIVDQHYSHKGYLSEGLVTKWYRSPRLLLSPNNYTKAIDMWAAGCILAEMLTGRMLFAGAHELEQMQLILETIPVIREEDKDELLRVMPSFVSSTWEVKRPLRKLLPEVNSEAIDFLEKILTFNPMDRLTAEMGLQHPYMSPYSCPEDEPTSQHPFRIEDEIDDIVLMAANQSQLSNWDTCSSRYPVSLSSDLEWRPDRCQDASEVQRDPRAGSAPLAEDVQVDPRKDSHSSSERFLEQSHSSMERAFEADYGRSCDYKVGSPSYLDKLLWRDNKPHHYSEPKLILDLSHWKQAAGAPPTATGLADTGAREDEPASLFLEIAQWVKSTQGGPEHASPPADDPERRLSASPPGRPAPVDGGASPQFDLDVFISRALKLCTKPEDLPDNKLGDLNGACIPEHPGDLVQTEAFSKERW
Sequence of RPS6KA4 KD1 (human) (O75676 whole entry, looked up): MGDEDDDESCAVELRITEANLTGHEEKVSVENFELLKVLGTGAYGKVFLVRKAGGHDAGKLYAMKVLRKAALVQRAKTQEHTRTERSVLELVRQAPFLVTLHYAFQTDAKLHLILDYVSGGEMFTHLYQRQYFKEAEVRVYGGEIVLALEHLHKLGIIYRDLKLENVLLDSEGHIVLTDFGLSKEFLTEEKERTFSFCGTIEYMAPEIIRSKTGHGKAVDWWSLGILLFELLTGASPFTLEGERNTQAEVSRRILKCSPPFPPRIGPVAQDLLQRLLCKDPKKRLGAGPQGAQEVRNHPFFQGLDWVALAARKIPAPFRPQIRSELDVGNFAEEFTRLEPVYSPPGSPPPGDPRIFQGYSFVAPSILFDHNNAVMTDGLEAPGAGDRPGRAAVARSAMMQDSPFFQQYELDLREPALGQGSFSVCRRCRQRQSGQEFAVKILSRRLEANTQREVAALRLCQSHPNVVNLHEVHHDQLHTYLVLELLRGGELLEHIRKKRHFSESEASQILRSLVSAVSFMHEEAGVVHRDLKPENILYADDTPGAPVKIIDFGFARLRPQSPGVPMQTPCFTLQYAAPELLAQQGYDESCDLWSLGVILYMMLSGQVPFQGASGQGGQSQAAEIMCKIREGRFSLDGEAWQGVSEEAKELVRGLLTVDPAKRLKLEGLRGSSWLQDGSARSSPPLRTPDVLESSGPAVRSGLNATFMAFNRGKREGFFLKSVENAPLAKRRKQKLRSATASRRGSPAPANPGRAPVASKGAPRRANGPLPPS
Sequence of PRKX (human) (P51817 whole entry, looked up): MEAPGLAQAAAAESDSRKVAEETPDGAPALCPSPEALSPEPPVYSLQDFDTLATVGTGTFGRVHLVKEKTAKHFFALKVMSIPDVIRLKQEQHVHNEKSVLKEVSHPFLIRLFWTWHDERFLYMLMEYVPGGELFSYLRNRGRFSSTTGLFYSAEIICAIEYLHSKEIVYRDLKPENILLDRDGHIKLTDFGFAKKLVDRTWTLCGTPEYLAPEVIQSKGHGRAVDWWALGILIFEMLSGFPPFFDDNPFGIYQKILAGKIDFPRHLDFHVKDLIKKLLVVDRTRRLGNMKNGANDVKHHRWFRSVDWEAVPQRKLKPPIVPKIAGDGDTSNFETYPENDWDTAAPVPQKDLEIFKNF

kinase still bound, per cent of control [1] [%]	kinase still bound, per cent of control (ACVR2B (human)) [%]	kinase still bound, per cent of control (CAMKK2 (human)) [%]	kinase still bound, per cent of control (CDK11B (human)) [%]	kinase still bound, per cent of control (CDKL2 (human)) [%]	kinase still bound, per cent of control (CHEK1 (human)) [%]	kinase still bound, per cent of control (CaMK1 (human)) [%]	kinase still bound, per cent of control (DAPK1 (human)) [%]	kinase still bound, per cent of control (DAPK3 (human)) [%]	kinase still bound, per cent of control (DDR2 (human)) [%]	kinase still bound, per cent of control (EPHA2 (human)) [%]	kinase still bound, per cent of control (EPHB3 (human)) [%]	kinase still bound, per cent of control (FER (human)) [%]	kinase still bound, per cent of control (FGR (human)) [%]	kinase still bound, per cent of control (GAK (human)) [%]	kinase still bound, per cent of control (GSK3A (human)) [%]	kinase still bound, per cent of control (IGF1R (human)) [%]	kinase still bound, per cent of control [2] [%]	kinase still bound, per cent of control (LIMK2 (human)) [%]	kinase still bound, per cent of control (MAP2K1 (human)) [%]	Structure (SMILES)	also measured
100	100	1.9	100	100	100	100	5.4	3.6	100	100	100	100	100	1.6	100	100	100	100	100	CC[C@@H]1C(=O)N(C)c2cnc(Nc3ccc(C(=O)NC4CCN(C)CC4)cc3OC)nc2N1C1CCCC1	kinase still bound, per cent of control (MAP3K5 (human)): 100%; kinase still bound, per cent of control (MAPK1 (human)): 100%; kinase still bound, per cent of control (MAPK4 (human)): 100%; kinase still bound, per cent of control (MYO3A (human)): 100%; kinase still bound, per cent of control (NEK5 (human)): 100%; kinase still bound, per cent of control (NEK6 (human)): 100%; kinase still bound, per cent of control (NEK7 (human)): 100%; kinase still bound, per cent of control (NUAK2 (human)): 100%; kinase still bound, per cent of control (PAK3 (human)): 100%; kinase still bound, per cent of control (PIK3C2B (human)): 100%; kinase still bound, per cent of control (PIP5K1A (human)): 100%; kinase still bound, per cent of control (PRKCH (human)): 100%; kinase still bound, per cent of control (PRKG1 (human)): 100%; kinase still bound, per cent of control (PRKX (human)): 100%; kinase still bound, per cent of control (ROS1 (human)): 28%; kinase still bound, per cent of control (RPS6KA4 KD1 (human)): 100%; kinase still bound, per cent of control (RPS6KA5 KD1 (human)): 100%; kinase still bound, per cent of control (SIK2 (human)): 100%
100	100	100	100	28	100	100	100	100	100	100	100	100	100	100	100	100	100	100	100	Cn1c(=O)n(-c2ccc(C(C)(C)C#N)cc2)c2c3cc(-c4cnc5ccccc5c4)ccc3ncc21	kinase still bound, per cent of control (ALK (human)): 100%; kinase still bound, per cent of control (MAP3K5 (human)): 100%; kinase still bound, per cent of control (MAPK1 (human)): 100%; kinase still bound, per cent of control (MAPK4 (human)): 100%; kinase still bound, per cent of control (MYO3A (human)): 100%; kinase still bound, per cent of control (NEK5 (human)): 100%; kinase still bound, per cent of control (NEK6 (human)): 100%; kinase still bound, per cent of control (NEK7 (human)): 100%; kinase still bound, per cent of control (NUAK2 (human)): 100%; kinase still bound, per cent of control (PAK3 (human)): 100%; kinase still bound, per cent of control (PIK3C2B (human)): 2.8%; kinase still bound, per cent of control (PIP5K1A (human)): 100%; kinase still bound, per cent of control (PRKCH (human)): 100%; kinase still bound, per cent of control (PRKG1 (human)): 100%; kinase still bound, per cent of control (PRKX (human)): 100%; kinase still bound, per cent of control (ROS1 (human)): 100%; kinase still bound, per cent of control (RPS6KA4 KD1 (human)): 100%; kinase still bound, per cent of control (RPS6KA5 KD1 (human)): 100%; kinase still bound, per cent of control (SIK2 (human)): 100%
